Reference: patent publication US6197746A, “Method of using secretin for treating autism” (priority 1999, dated 2001)
Entries after “also recorded” stand apart in the source; their conditions may differ.

Columns and labels:
[1] = system: serotonin levels; rubella titers; test: Blood tests after secretin infusion (Example 1); type: in vivo, human
Method: (§1) Biomedical changes were also measured in the patient.

pancreas = test: Pancreatic juice release after intravenous secretin during upper gastrointestinal endoscopy (Example 1); type: in vivo, human; conditions: immediately after 2 CU/kg i.v. over one minute; usual rate 1-2 ml/min
Method: (§2) When the patient was […], the secretin was administered by way of an infusion as part of an upper gastrointestinal endoscopy. The secretin was used in this diagnostic procedure at the request of the patient's parents, one of which is an inventor of the present invention. The secretin used in this procedure is known as Secretin-Ferring available from Ferring Laboratories, Inc., Suffern, N.Y. (See Appendix A). The secretin was dissolved in a […] solution of sodium chloride and administered in a dosage of 2 clinical units (CU) per kilogram (kg) body weight by intravenous injection over one minute. (I.E. 30 IU IV for approximately 15 kilograms of body weight.)
(§3) The diagnostic tests performed on the patient during this procedure also indicated gastric inflammation. […] The following Table I summarizes the improvements observed in the patient within 3 weeks after the infusion of secretin.

abnormal opioid peptides = conditions: after the secretin infusion; autistic children that responded to casein free and gluten free diet; cited from earlier work
symptoms of autism [2] = test: Symptoms and behaviour of a child with symptoms of autism after secretin infusion (Example 1, Table I); type: in vivo, human
Method: The present invention will be better understood from the following examples which are given by way of illustration and not by way of limitation. The patient, the same in both examples, is a child with symptoms of autism.
as §2, §3

symptoms of autism [3] = test: Daily transdermal secretin with DMSO in a child with symptoms of autism (Example 2); type: in vivo, human
Method: At the time of this treatment, the patient was […]. Secretin was administered transdermally using pharmaceutical grade dimethyl sulfoxide (DMSO) (generally 99.9% pure) available from Clinic Service Co., Box 2512, Hemet Calif. 92543. The secretin (Secretin-Ferring) was administered daily in a dosage of about 75 CU over a five day period (i.e., about 15 CU daily) For each treatment, about 4 drops of DMSO were placed onto the skin of the patient, about 15 CU of the crystalline secretin was placed onto the DMSO, and the composition was rubbed into the skin.

brain perfusion = test: SPECT scan of the brain after secretin infusion (Example 1); type: in vivo, human
Method: Further, the patient's secretin cells prior to receiving treatment, measured at a level of 9, are far below the normal limit in the range of 20-70.
as §1

[4] = within weeks after the treatment

secretin
measles, mumps and rubella antibodies ([1]; after the secretin administration in Example 1): reduction | rubella titers ([1]; after the treatment, dropped from 5.8): 2.3 | serotonin levels ([1]; blood, after the treatment): rise and increase | amount of pancreatic juice being released (pancreas): approximately 10 ml/min | abnormal opioid peptides (abnormal opioid peptides): disappeared | rate of the patient's progress (symptoms of autism [2]; at about 5 weeks after first infusion): appeared to decrease | results of second and third infusions (symptoms of autism [2]; second about 9 months after first, third about three months after second): achieved the same results | limited diet preferences (symptoms of autism [2]; within 3 weeks after infusion): No Change | water consumption (symptoms of autism [2]; within 3 weeks after infusion): approximately 50 cups per day | bowel movements (symptoms of autism [2]; within 3 weeks after infusion, before: abnormal): Normal bowel movements | excessive water consumption (symptoms of autism [2]; within 3 weeks after infusion, before: approximately 50 cups per day): no change | potty training (symptoms of autism [2]; within 3 weeks after infusion, before: diapers only): Completely potty trained | imitation of commands (symptoms of autism [2]; within 3 weeks after infusion, before: did not imitate): Will imitate almost any multi-step | "spinning" episodes (symptoms of autism [2]; within 3 weeks after infusion, before: infrequent (1-2 times/week)): No spinning episodes | eye contact (symptoms of autism [2]; within 3 weeks after infusion, before: minimal eye contact): 75 % of the time | connections made between language and objects (symptoms of autism [2]; within 3 weeks after infusion, before: no apparent connections): Many connections made between new | flash cards (symptoms of autism [2]; within 3 weeks after infusion, before: no flash cards): 40-50 flash cards | focus on requested tasks (symptoms of autism [2]; within 3 weeks after infusion, before: no focus): Will sit and watch carefully | interest in drawing (symptoms of autism [2]; within 3 weeks after infusion, before: no interest): Wants to draw constantly | response to request for gestures (symptoms of autism [2]; within 3 weeks after infusion, before: no response): Responds to all kinds of things | sentences (symptoms of autism [2]; within 3 weeks after infusion, before: no sentences): Short sentences | words (symptoms of autism [2]; within 3 weeks after infusion, before: two words): 100's of words | sleeping problems (symptoms of autism [2]; within 3 weeks after infusion, before: up numerous times each night): Has slept through almost every night | interaction with videos (symptoms of autism [2]; within 3 weeks after infusion, before: watch videos): gets "involved" interactively | chronic abnormal bowel movements (symptoms of autism [2]; within days after the administration, no change of diet): became normal | eye contact (symptoms of autism [2]; [4]): able to make normal eye contact | language (symptoms of autism [2]; [4]): language appeared for the first time in two years | other behavioral and developmental problems (symptoms of autism [2]; [4]): improved remarkably | autistic behavioral symptoms when the daily dose is stopped (symptoms of autism [3]; transdermal daily dose stopped): autistic behavioral symptoms return | language (symptoms of autism [3]; transdermal daily, within a period of about 6 months): progressed to spontaneous and conversational language | perfusion of the right posterior parietal and right temporal lobes (blood flow in the brain) (brain perfusion): improved; also recorded: increased
